Here are results for 15 molecules from patent US12396948B2, “Pharmaceutical compositions for the treatment of ophthalmic conditions” (Rhodes Technologies, priority 2017, dated 2025).

Where a name gives a salt, the structure may show the parent alone.

The conditions of data set [1]: cited from earlier work.
Data set [2] deals with Female C57BL/6J mice. Put plainly: Mouse aqueous humor dynamics by constant flow infusion (Example 57). The settings on record: 0.5% emulsion.
From the text: Briefly, immediately following bilateral tonometry in anesthetized animals, both eyes received a drop of proparacaine HCl (0.5%) for topical anesthesia, and both anterior chambers were cannulated with a 30G needle (one per eye) connected to previously calibrated BLPR-2 flow-through pressure transducers (World Precision Instruments (WPI), Sarasota, FL) for the continuous determination of pressure. A drop of PBS was also given to each eye topical ocular to prevent corneal drying. The opposing end of each transducer was connected to a 3-way valve, which in turn was connected to: (a) a 50 FAL glass microsyringe (Hamilton Company, Reno, NV) filled with sterile PBS loaded into an SP101i microdialysis infusion pump (WPI), and (b), an open ended, variable height manometer. Signals from the pressure transducers were passed via a TBM4M Bridge Amplifier (WPI) and a Lab-Trax analog-to-digital converter (WPI) to a computer. Data were recorded using LabScribe2 software (WPI).
The manometer was closed to the circuit and eyes were infused at a flow rate of 0.1 μL/min. When pressure had stabilized, pressure measurements were recorded, and flow rate was increased sequentially to 0.2, 0.3, 0.4, and 0.5 μL/min. Three stabilized pressures (spaced 5 min apart) at each flow rate were recorded. Aqueous outflow facility (C) in each eye of each animal was calculated as the reciprocal of the slope of a plot of Mean Stabilized Pressure as ordinate against Flow Rate as abscissa.
Episcleral venous pressure (Pe) was estimated using the blood reflux method. Briefly, following anterior chamber cannulation, the manometer was opened to the circuit, manometric pressure was set to equal pre-cannulation (anesthetized) TOP, and then manometric pressure was lowered incrementally (at the rate of 1 mmHg/min) until the point at which blood was seen (using a dissection microscope under 30× magnification) to reflux into the scleral collector channels and then Schlemm's canal. The manometric pressure at which Schlemm's canal was seen to fill with refluxed blood was regarded as Pe.
After completion of the above measurements, animals were euthanized by anesthetic overdose and, 20 min following euthanasia, C was measured again. Thus values for Clive and C dead were obtained. Following euthanasia, both aqueous humor formation rate (Fin) and Pe are equal to zero, and via algebraic rearrangement of the modified Goldmann equation {IOP=[(Fin−Fu)/C]+Pe}, values for Fu were thus calculated for each individual perfusion rate and corresponding TOP. The mean of those resultant 5 values was reported as Fu.
Aqueous Humor Formation Rate (Fin) was calculated for each eye by further algebraic rearrangement of the modified Goldmann equation: Fin=[C×(IOP−Pe)]+Fu.
The test system of data set [3] is Female C57BL/6J mice. Put plainly: Conscious mouse IOP after single topical drop (Example 57). To be noted: for maximal IOP effect: conscious mice. It is filed as in vivo. As to the method:
Female C57BL/6J mice (Jackson Laboratories, Bar Harbor, ME; age 2-3 months) were kept in 12 h light/12 h dark conditions (lights on 0600 h) and fed with standard chow. All experimental procedures were conducted in accordance with the ARVO Statement for the Use of Animals in Ophthalmic and Vision Research, and the University of North Texas Health Science Center Institutional Animal Care and Use Committee Regulations and Guidelines.
Dronabinol ophthalmic solutions (0.05% and 0.5%) and the corresponding vehicle were provided by Rhodes Technologies. Timolol maleate 0.5% (Hi. Tech Pharmacal) was purchased. Formulation AE10C-B was prepared as described above (Table 44).
The 2-tailed unpaired Student's t-test was used for comparison of results at the same time point between two study groups. P values of less than 0.05 were considered significant. All data are presented as mean±SEM.

For a further data set, the system named is mouse. The data set can be described thus: Repeated dosing study on IOP lowering effects (Example 58). It is filed as in vivo. To be noted: for maximum IOP reduction: twice daily 7 days, vs contralateral untreated eye. As to the method: Study protocol is similar to Dose-Response Relationship Study described above, except that the animals are divided into three groups (as specified below). A single 5 μL drop was instilled topically onto one eye of each mouse twice daily starting at time 0 of Day 1.
The contralateral eye was untreated. IOP of both eyes was measured at −1 h (baseline), 2 h, 4 h, 6 h, 8 h, 12 h. […] In addition to IOP measurement, animals were evaluated for possible ocular and gross systemic adverse effects. • Group 1: Vehicle • Group 2: Dronabinol (optimal concentration determined in studies above) • Group 3: Timolol (0.5%) Results: The results are presented in FIGS. 28 and 29, which illustrate comparison of IOP effects of the Dronabinol formulations, vehicle, and Timolol. The formulations were administered twice daily at 8-9 AM (Time 0) and 4-5 PM starting Day 1 till Day 7. The upper panel reports IOP values at the indicated time points after dosing (IOP at Time 0 was obtained immediately prior to the morning dosing) of Days 1, 4, and 7. The bottom panel represents % IOP change compared to the contralateral untreated eye, whose IOP defines 100%. Data are shown as mean±SEM.

Data set [4] can be described thus: Impurity profile of antioxidant excipient solutions (Example 42). To be noted: for Impurity (% Area) Total / Impurity (% w/w) Total: excipient solution; for Impurity (% w/w) Total: converted to levels corresponding to antioxidant concentrations in the dronabinol formulations. It counts as physicochemical.

With `O=C(O)CC(O)C(=O)O` (centres unmarked) [Malic Acid], the “Solub. in Water” value in data set [1] is reported as 59.2 g/100 mL water.
As to `O=S([O-])S(=O)(=O)[O-].[K+].[K+]` [Potassium Metabisulfite], the “Solub. in Water” value in data set [1] is on record as 49.5 g/100 mL water.
For the molecule `OCC(O)CS` (centres unmarked) [Monothioglycerol], the “Solub. in Water (in words)” value in data set [1] was “Slightly”.
On to `CCCCCc1cc(O)c2c(c1)OC(C)(C)[C@@H]1CCC(C)=C[C@@H]21` [Dronabinol, (−)-trans-Δ^9-tetrahydrocannabinol], for which the ocular adverse effect result in the data set on Female C57BL/6J mice [2] is on record as “No ocular adverse effect was observed”. Moreover, in the data set on Female C57BL/6J mice [2] (2 h after treatment), the “IOP lowering in anesthetized animals” value was found to be 29.9%. Moreover, in the data set with Female C57BL/6J mice [2] (2 h after treatment), the “aqueous humor formulation rate, change” value is −21.6%. Moreover, the “aqueous outflow facility, increase” value with Female C57BL/6J mice [2] (2 h after treatment) amounted to 54.5%. Besides, the “episcleral venous pressure, change” value with Female C57BL/6J mice [2] (2 h after treatment) was −26.8%. For the same molecule, in the data set on Female C57BL/6J mice [3] (0.05% and 0.5%, single 5 μL drop), the “IOP reduction at 24 h after treatment” value is on record as “still significant”. In addition, the “ocular, systemic, or behavioral adverse effects” value with Female C57BL/6J mice [3] (0.05% and 0.5%, single topical drop) is “No ocular, systemic, or behavioral adverse effects were observed”. The “maximal IOP effect” value was −22.3% in the data set with Female C57BL/6J mice [3] (0.05% ophthalmic solution, single 5 μL drop, @ 6 h) and −25.8% in the data set on Female C57BL/6J mice [3] (0.5% ophthalmic solution, single 5 μL drop, @ 2 h). Also, the “maximum IOP reduction” value worked out at 19.8% with mouse (0.005% formulation), 25.7% in the data set on mouse (0.015% formulation) and 33.2% in the data set with mouse (0.05% formulation). In the data set on mouse (0.05%, lowered baseline IOP at Days 4 & 7), the duration of action was > 16 h. Moreover, in the data set with mouse (7-day twice daily dosing, 0.005%, 0.015%, 0.05%), the “tachyphylaxis or adverse effect” value is “No tachyphylaxis or adverse effect was observed”.
Consider `CCCCCCCCCCCCCCCC(=O)OC[C@H](O)[C@H]1OC(=O)C(O)=C1O` [Ascorbyl Palmitate], for which, in data set [1], the “Solub. in Water” value is 0.07 mg/L.
Take `O=S=O` [Sulfur Dioxide]: the “Solub. in Water” value in data set [1] is listed as 8.5 g/100 mL water.
Regarding Vitamin E, the “Solub. in Water (in words)” value in data set [1] is “Insoluble”.
In the case of `CCCOC(=O)c1cc(O)c(O)c(O)c1` [Propyl Gallate], the “Solub. in Water” value in data set [1] is 0.35 g/100 mL water.
With `O=S([O-])S(=O)(=O)[O-].[Na+].[Na+]` [Sodium Metabisulfite], the “Solub. in Water (in words)” value in data set [1] is recorded as “Freely”.
With `O=S([O-])([O-])=S.[Na+].[Na+]` [Sodium Thiosulfate], in data set [4], the “Impurity (% Area) Total” value is listed as 0.0 % Area and the “Impurity (% w/w) Total” value was found to be 0.0 % w/w.
In the case of `O=S([O-])[O-].[Na+].[Na+]` [Sodium Sulfite], in data set [4], the “Impurity (% Area) Total” value is on record as 0.0 % Area and the “Impurity (% w/w) Total” value was found to be 0.0 % w/w.
Consider `COc1ccc(O)c(C(C)(C)C)c1` [Butylated Hydroxyanisole (BHA)], for which the “Solub. in Water (in words)” value in data set [1] was “Insoluble”.
As for `O=C(O)/C=C/C(=O)O` [Fumaric Acid], the “Solub. in Water” value in data set [1] is given as 0.007 mg/L.
As for `CC(C)(C)NC[C@H](O)COc1nsnc1N1CCOCC1` [Timolol, Timolol maleate], the “effect on mouse IOP” value in the data set with Female C57BL/6J mice [3] (0.5%, positive control) is listed as “lowered mouse TOP as expected”. For the same molecule, the “prolonged IOP reduction (baseline IOP at Days 4 & 7)” value with mouse (0.5%, twice daily) was “did not produce this prolonged IOP reduction”. The “maximum IOP reduction” value with mouse (0.5%) was determined as 35.1%.
Turning to `CC(=O)OC/C=C(C)/C=C/C=C(C)/C=C/C1=C(C)CCCC1(C)C` [Vitamin A], the “RRT 0.83 in testing of excipients” value in data set [4] (0.5% Vitamin A) is ~0.5 % w/w.
